Assay results reported in ChEMBL document CHEMBL5505979, “Novel aminothiazoximone-corbelled ethoxycarbonylpyrimidones with antibiofilm activity to conquer Gram-negative bacteria through potential multitargeting effects” (Eur J Med Chem, 2024).
Converted amounts (≈) assume the structure as drawn.

Columns and labels:
Type in all cases: functional
Escherichia coli [1] = assay: Anti-bacterial activity against Escherichia coli JM109 assessed as inhibition of bacterial growth
Staphylococcus aureus [2] = assay: Anti-bacterial activity against Staphylococcus aureus ATCC 25923 assessed as inhibition of bacterial growth; settings: Staphylococcus aureus, ATCC 25923; read-out: MIC
Klebsiella pneumoniae = assay: Anti-bacterial activity against Klebsiella pneumoniae KPN325 assessed as inhibition of bacterial growth; settings: Klebsiella pneumoniae, KPN325; read-out: MIC
Staphylococcus aureus [3] = assay: Anti-bacterial activity against Staphylococcus aureus ATCC 29213 assessed as inhibition of bacterial growth; settings: Staphylococcus aureus, ATCC 29213; read-out: MIC
Pseudomonas aeruginosa [4] = assay: Anti-bacterial activity against Pseudomonas aeruginosa ATCC 27853 assessed as inhibition of bacterial growth; settings: Pseudomonas aeruginosa, ATCC 27853; read-out: MIC
Staphylococcus aureus [5] = assay: Anti-bacterial activity against Staphylococcus aureus CMCC (B) 26003 assessed as inhibition of bacterial growth
Staphylococcus aureus [6] = assay: Anti-bacterial activity against Staphylococcus aureus ATCC 12600 assessed as inhibition of bacterial growth; settings: Staphylococcus aureus, ATCC 12600; read-out: MIC
Pseudomonas aeruginosa [7] = assay: Anti-bacterial activity against Pseudomonas aeruginosa ATCC 9027 assessed as inhibition of bacterial growth
Escherichia coli [8] = assay: Anti-bacterial activity against Escherichia coli ATCC 25922 assessed as inhibition of bacterial growth
Candida albicans [9] = assay: Anti-fungal activity against Candida albicans 90023 assessed as inhibition of fungal growth
Candida albicans [10] = assay: Anti-fungal activity against Candida albicans assessed as inhibition of fungal growth; settings: Candida albicans; read-out: MIC
Candida parapsilosis = assay: Anti-fungal activity against Candida parapsilosis assessed as inhibition of fungal growth; settings: Lodderomyces parapsilosis; read-out: MIC
Enterococcus faecalis = assay: Anti-bacterial activity against Enterococcus faecalis V583 assessed as inhibition of bacterial growth
Staphylococcus aureus [11] = assay: Anti-bacterial activity against Staphylococcus aureus CMCC (B) 26001 assessed as inhibition of bacterial growth
Staphylococcus aureus [12] = assay: Anti-bacterial activity against Staphylococcus aureus ATCC 1708 assessed as inhibition of bacterial growth; settings: Staphylococcus aureus, ATCC 1708; read-out: MIC
Pseudomonas aeruginosa [13] = assay: Anti-bacterial activity against Pseudomonas aeruginosa ST235 assessed as inhibition of bacterial growth; settings: Pseudomonas aeruginosa, ST235; read-out: MIC
Pseudomonas aeruginosa [14] = assay: Anti-bacterial activity against Pseudomonas aeruginosa ATCC 15442 assessed as inhibition of bacterial growth; settings: Pseudomonas aeruginosa, ATCC 15442; read-out: MIC
Staphylococcus aureus [15] = assay: Anti-bacterial activity against methicillin-resistant Staphylococcus aureus ATCC 43300 assessed as inhibition of bacterial growth; settings: Staphylococcus aureus, ATCC 43300; read-out: MIC
Candida tropicalis = assay: Anti-fungal activity against Candida tropicalis assessed as inhibition of fungal growth; settings: Candida tropicalis; read-out: MIC
Staphylococcus aureus [16] = assay: Anti-bacterial activity against Staphylococcus aureus ATCC 6538 assessed as inhibition of bacterial growth
Staphylococcus aureus [17] = assay: Anti-bacterial activity against methicillin-resistant Staphylococcus aureus N315 assessed as inhibition of bacterial growth; settings: Staphylococcus aureus, N315; read-out: MIC
Pseudomonas aeruginosa [18] = assay: Anti-bacterial activity against Pseudomonas aeruginosa CMCC (B) 10104 assessed as inhibition of bacterial growth; settings: Pseudomonas aeruginosa, CMCC (B) 10104; read-out: MIC
Acinetobacter baumannii = assay: Anti-bacterial activity against Acinetobacter baumannii R674 assessed as inhibition of bacterial growth

Row | SMILES | MIC (Escherichia coli [1]) | MIC (Staphylococcus aureus [2]) | MIC (Klebsiella pneumoniae) | MIC (Staphylococcus aureus [3]) | MIC (Pseudomonas aeruginosa [4]) | MIC (Staphylococcus aureus [5]) | MIC (Staphylococcus aureus [6]) | MIC (Pseudomonas aeruginosa [7]) | MIC (Escherichia coli [8]) | MIC (Candida albicans [9]) | MIC (Candida albicans [10]) | MIC (Candida parapsilosis) | MIC (Enterococcus faecalis) | MIC (Staphylococcus aureus [11]) | MIC (Staphylococcus aureus [12]) | MIC (Pseudomonas aeruginosa [13]) | MIC (Pseudomonas aeruginosa [14]) | MIC (Staphylococcus aureus [15]) | MIC (Candida tropicalis) | MIC (Staphylococcus aureus [16]) | also measured
1 | CCOC(=O)C1=C(CN2CCN(C(=O)/C(=N/OC)c3csc(N)n3)CC2)NC(=O)NC1c1cccc(O)c1 (centres undefined) | 59 µM (≈ 32.1 µg/mL) | 118 µM (≈ 64.1 µg/mL) | 59 µM (≈ 32.1 µg/mL) | 59 µM (≈ 32.1 µg/mL) | 59 µM (≈ 32.1 µg/mL) | 236 µM (≈ 128 µg/mL) | 15 µM (≈ 8.15 µg/mL) | 59 µM (≈ 32.1 µg/mL) | 59 µM (≈ 32.1 µg/mL) | 7 µM (≈ 3.81 µg/mL) | 430 µM (≈ 234 µg/mL) | 430 µM (≈ 234 µg/mL) | 15 µM (≈ 8.15 µg/mL) | 59 µM (≈ 32.1 µg/mL) | 118 µM (≈ 64.1 µg/mL) | 59 µM (≈ 32.1 µg/mL) | 59 µM (≈ 32.1 µg/mL) | 59 µM (≈ 32.1 µg/mL) | 430 µM (≈ 234 µg/mL) | 59 µM (≈ 32.1 µg/mL) | MIC (Staphylococcus aureus [17]): 118 µM (≈ 64.1 µg/mL); MIC (Pseudomonas aeruginosa [18]): 117 µM (≈ 63.6 µg/mL); MIC (Acinetobacter baumannii): 15 µM (≈ 8.15 µg/mL)
2 | CCOC(=O)C1=C(CN2CCN(C(=O)/C(=N/OC)c3csc(N)n3)CC2)NC(=O)NC1c1nccs1 (centres undefined) | 240 µM (≈ 128 µg/mL) | 240 µM (≈ 128 µg/mL) | 240 µM (≈ 128 µg/mL) | 479 µM (≈ 256 µg/mL) | 15 µM (≈ 8.02 µg/mL) | 240 µM (≈ 128 µg/mL) | 120 µM (≈ 64.2 µg/mL) | 60 µM (≈ 32.1 µg/mL) | 60 µM (≈ 32.1 µg/mL) | 60 µM (≈ 32.1 µg/mL) | 479 µM (≈ 256 µg/mL) | 479 µM (≈ 256 µg/mL) | 240 µM (≈ 128 µg/mL) | 60 µM (≈ 32.1 µg/mL) | 240 µM (≈ 128 µg/mL) | 30 µM (≈ 16 µg/mL) | 120 µM (≈ 64.2 µg/mL) | 120 µM (≈ 64.2 µg/mL) | 60 µM (≈ 32.1 µg/mL) | 120 µM (≈ 64.2 µg/mL) | MIC (Staphylococcus aureus [17]): 240 µM (≈ 128 µg/mL); MIC (Pseudomonas aeruginosa [18]): 240 µM (≈ 128 µg/mL); MIC (Acinetobacter baumannii): 479 µM (≈ 256 µg/mL)
3 | CCOC(=O)C1=C(CN2CCN(C(=O)/C(=N/OC)c3csc(N)n3)CC2)NC(=O)NC1c1ccc(N(C)C)cc1 (centres undefined) | 112 µM (≈ 63.9 µg/mL) | 112 µM (≈ 63.9 µg/mL) | 225 µM (≈ 128 µg/mL) | 225 µM (≈ 128 µg/mL) | 225 µM (≈ 128 µg/mL) | 225 µM (≈ 128 µg/mL) | 225 µM (≈ 128 µg/mL) | 225 µM (≈ 128 µg/mL) | 225 µM (≈ 128 µg/mL) | 52 µM (≈ 29.7 µg/mL) | 412 µM (≈ 235 µg/mL) | 412 µM (≈ 235 µg/mL) | 28 µM (≈ 16 µg/mL) | 449 µM (≈ 256 µg/mL) | 112 µM (≈ 63.9 µg/mL) | 225 µM (≈ 128 µg/mL) | 225 µM (≈ 128 µg/mL) | 56 µM (≈ 32 µg/mL) | 412 µM (≈ 235 µg/mL) | 28 µM (≈ 16 µg/mL) | MIC (Staphylococcus aureus [17]): 449 µM (≈ 256 µg/mL); MIC (Pseudomonas aeruginosa [18]): 225 µM (≈ 128 µg/mL); MIC (Acinetobacter baumannii): 56 µM (≈ 32 µg/mL)
